Measured values: patent US20240246935A1 (Plexium, Inc., priority 2021, published 2024)

What was measured:
[1] = target: human E3 ligase component cereblon (CRBN) (Homo sapiens (Human), UniProt Q96SW2); experiment: Cereblon (CRBN) target engagement, NanoBRET TE Intracellular E3 Ligase Assay in transfected HEK-293T cells; details: read-out: CRBN Binding EC50
Procedure: HEK293T cells were harvested ca. 75% confluent with trypsin and plated (500,000 cells/well) in a 6-well tissue culture plate in 2 mL of Dulbecco's Modified Eagle Medium (DMEM)+10% Fetal Bovine Serum (FBS) and incubated overnight at 37° C.
The NanoLuc-CRBN fusion vector (Nluc-CRBN; Promega) contains the coding region of human E3 ligase component cereblon (CRBN) fused to the C-terminus of the NanoLuc luciferase coding region. A mixture of 10 ng Nluc-CRBN and 990 ng DDB1 Expression Vector (Promega) was added to 125 μL Opti-Minimum Essential Medium (Opti-MEM™; Thermo Fisher) along with 2 μL P3000 reagent (Thermo Fisher) in a 1.5 mL epppendorf tube. This solution was added to Lipofectamine 3000 transfection reagent (5 μL; Thermo Fisher) in Opti-MEM (125 μL), mixed well, and incubated for 15 minutes at room temperature. The transfection mixture was added dropwise to cells and incubated overnight at 37° ° C., 5% CO2. Following transfection, cells were washed once with PBS, and trypsin (250 μL) was added and incubated 30-45 sec to dislodge cells. Complete media (2 mL) was added to resuspend cells to form a single cell suspension. Cells were centrifuged at 320×g for 5 min at room temperature, the supernatant was removed, and the cell pellet resuspended in Opti-MEM (3 mL; wash step repeated×2). After final resuspension in 5 mL Opti-MEM, cells were counted and resuspended at 200,000 cells/mL in Opti-MEM.
Cereblon target engagement was monitored by Bioluminescence Resonance Energy Transfer (BRET) in transfected HEK-293T cells using the NanoBRET TE Intracellular E3 Ligase Assay (Promega). Briefly, 384-well plates (white opaque plates, Corning 3574, low binding surface) were seeded with transfected HEK-293T cells (38 μL/well). 2 μL of 10 μM CRBN tracer (diluted 1:5 in Tracer Dilution Buffer) was added to each well. Plates were centrifuged at 320×g for 1 min at room temperature. Test compounds were added in a 11-point dilution series (typically 10 μM to […]) using a TECAN D300e Digital Dispenser. Plates were shaken for 2 minutes on a microplate shaker to mix compounds. Plates were centrifuged at 320×g for 1 min at room temperature, and subsequently incubated for 2 hours at 37° C.
After incubation, plates were allowed to cool to room temperature for 15 minutes. 20 μL of 3× Complete NanoBRET™ Nano-Glo® Substrate plus Inhibitor Solution (Promega, 1:166 Substrate and 1:500 dilution of Extracellular NanoLuc® Inhibitor diluted in Opti-MEM) were added to each well. Plates were incubated with shaking at room temperature for 3 minutes covered with foil. Plates were read on a CLARIOstar microplate reader (BMG LabTech), measuring at 450 nm (donor emission) and 610 nm (acceptor emission). The IC50 values were determined by regression to best fit four-parameter logistic curves using GraphPad Prism.

[2] = system: IKZF2 (Helios); experiment: IKZF2 reporter degradation assay (HEK 293T IKZF2-mNeonGreen reporter cell line); type: cell-based, human; details: 1 μM compound, 24 hour incubation, HEK 293T IKZF2-mNeonGreen reporter
Description: Polycistronic plasmids were constructed for the mammalian expression of fluorescent reporter fusions of human transcription factors IKZF1 (Ikaros), IKZF2 (Helios), and IKZF3 (Aiolos). The respective protein sequences had their C-terminal end joined to a GGGGS linker repeated three times followed by mNeonGreen, P2A sequence, and mScarlet. The DNA sequences of the open reading frames are as follows:
IKZF1, IKZF2, and IKZF3 constructs were cloned into the UCOE Hygromycin expression vectors (Millipore Sigma). Reporter constructs were transfected using cationic lipid reagents into adherent HEK 293T cells and stable integrants were selected by treatment with 200 μg/mL hygromycin B. Clonal populations were obtained from the population of stable integrants either by limiting dilution or fluorescence activated cell sorting.
The clonal stable cell lines were maintained under constant 200 μg/mL hygromycin B selection while being passaged for use in the degradation assays. […] The fluorescence intensity of the IKZF1/2/3-mNeonGreen (FITC channel) and mScarlet (PE channel) reporters were routinely analyzed by flow cytometry to confirm consistent expression levels between experiments.
The IKZF1/IKZF2/IKZF3 degradation assays were carried out by harvesting the HEK 293T reporter cell lines and resuspending the cells in media formulated for reduced background fluorescence (FluoroBrite; Thermo Fisher). The respective cell lines were seeded at a density of 4000 cells/well into black-walled 384-well optical grade assay tissue culture plates. The cells were incubated overnight at 37° C. to allow for attachment to the assay plate. Dilutions of the compounds were prepared in DMSO from 10 mM compound stocks. The assay plates were treated with appropriate concentrations of the compounds by dispensing the DMSO dilutions in quadruplicate wells with an upper limit of 0.5% final DMSO.
After 24 hour incubation with the compounds, the assay plates were imaged on an ImageXpress Pico microscopy system (cells maintained at 37° C. during imaging) to obtain the fluorescent readouts. The assay plates were imaged in the FITC and Tetramethylrhodamine (TRITC) channels to obtain the mNeonGreen fluorescence intensity (reporter degradation data) and mScarlet fluorescence intensity (for cell segmentation). 293T-IKZF1 and 293T-IKZF3 reporter cell lines were imaged with exposures of 500 milliseconds (ms) for both FITC and TRITC channels, while the 293T-IKZF2 reporter cell line was imaged with exposures of 1000 ms for FITC and 1250 ms for TRITC. The resulting data was analyzed with Cell Reporter Xpress software using the 2-channel cell scoring analysis with a “percent positive” readout. The TRITC channel was selected for the “nuclei” segmentation with a threshold of 20 while the FITC channel was selected for the “Marker 1” segmentation and a threshold of 100 for the IKZF1 and IKZF3 reporter lines. […] The minimum segmentation width was set to 6 micrometers and the maximum segmentation width was set to 15 micrometers for all cell lines. The DCs calculations were determined by regression to best fit four-parameter logistic curves using GraphPad Prism.

Sequence of human E3 ligase component cereblon (CRBN) (Q96SW2 whole entry): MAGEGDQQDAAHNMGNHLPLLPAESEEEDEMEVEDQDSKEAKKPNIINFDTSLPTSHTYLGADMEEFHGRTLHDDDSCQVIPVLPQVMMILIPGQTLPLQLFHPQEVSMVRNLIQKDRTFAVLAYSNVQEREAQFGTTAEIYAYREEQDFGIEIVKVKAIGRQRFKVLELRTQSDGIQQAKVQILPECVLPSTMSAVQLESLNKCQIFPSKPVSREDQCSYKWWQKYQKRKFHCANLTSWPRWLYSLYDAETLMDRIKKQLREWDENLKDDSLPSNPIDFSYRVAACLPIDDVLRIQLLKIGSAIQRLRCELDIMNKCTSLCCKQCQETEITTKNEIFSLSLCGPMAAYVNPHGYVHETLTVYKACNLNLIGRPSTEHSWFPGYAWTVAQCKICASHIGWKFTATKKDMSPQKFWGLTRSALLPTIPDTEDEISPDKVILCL
Sequence of human E3 ligase component cereblon (CRBN) (Q16531 whole entry partner): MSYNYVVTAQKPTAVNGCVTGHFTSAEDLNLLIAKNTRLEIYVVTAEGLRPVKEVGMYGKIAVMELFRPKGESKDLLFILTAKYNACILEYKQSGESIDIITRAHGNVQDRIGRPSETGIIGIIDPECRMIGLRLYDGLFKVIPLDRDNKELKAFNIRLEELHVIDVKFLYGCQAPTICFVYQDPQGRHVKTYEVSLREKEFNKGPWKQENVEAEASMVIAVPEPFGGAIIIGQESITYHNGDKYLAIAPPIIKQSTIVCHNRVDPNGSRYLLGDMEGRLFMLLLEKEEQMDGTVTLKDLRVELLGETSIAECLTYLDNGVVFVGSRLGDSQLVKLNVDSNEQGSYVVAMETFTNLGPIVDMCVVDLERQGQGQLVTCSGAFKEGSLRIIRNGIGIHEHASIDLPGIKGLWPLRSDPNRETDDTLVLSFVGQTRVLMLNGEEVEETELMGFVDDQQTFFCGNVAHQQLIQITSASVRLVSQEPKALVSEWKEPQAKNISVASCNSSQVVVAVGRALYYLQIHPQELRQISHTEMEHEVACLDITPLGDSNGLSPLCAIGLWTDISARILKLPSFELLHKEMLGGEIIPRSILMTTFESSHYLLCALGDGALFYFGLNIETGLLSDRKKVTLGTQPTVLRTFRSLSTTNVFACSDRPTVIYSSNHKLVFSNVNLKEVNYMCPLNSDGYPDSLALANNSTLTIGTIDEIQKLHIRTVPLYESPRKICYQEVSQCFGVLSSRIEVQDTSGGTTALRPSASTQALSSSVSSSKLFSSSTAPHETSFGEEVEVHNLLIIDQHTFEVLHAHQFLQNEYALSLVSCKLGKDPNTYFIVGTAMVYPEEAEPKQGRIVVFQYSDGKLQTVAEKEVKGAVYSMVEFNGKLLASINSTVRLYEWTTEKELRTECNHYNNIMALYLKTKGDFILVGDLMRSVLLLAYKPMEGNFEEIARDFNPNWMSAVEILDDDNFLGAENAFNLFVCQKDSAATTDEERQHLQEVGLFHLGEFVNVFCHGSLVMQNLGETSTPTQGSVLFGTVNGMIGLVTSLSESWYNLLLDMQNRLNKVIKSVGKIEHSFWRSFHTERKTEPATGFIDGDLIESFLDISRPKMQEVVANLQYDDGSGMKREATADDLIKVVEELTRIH

EC50 [1] [nM] | Molecule | IKZF2 % Degradation @ 1 μM [2] [%]
11 | N#Cc1ccc(C2CN([C@H]3CCCC[C@H]3Oc3ccc4c(c3)CN(C3CCC(=O)NC3=O)C4=O)C2)c(Cl)c1 (stereo partly drawn) [Compound 49, 3-chloro-4-(1-((1S,2R)-2-((2-(2,6-dioxopiperidin-3-yl)-1-oxoisoindolin-5-yl)oxy)cyclohexyl)azetidin-3-yl)benzonitrile] | <15
5 | O=C1CCC(N2Cc3cc(O[C@H]4CCC[C@@H]4N4CC(c5ccc(-n6cccn6)cc5)C4)ccc3C2=O)C(=O)N1 (stereo partly drawn) [Compound 73, 3-(5-(((1S,2S)-2-(3-(4-(1H-pyrazol-1-yl)phenyl)azetidin-1-yl)cyclopentyl)oxy)-1-oxoisoindolin-2-yl)piperidine-2,6-dione] | 63.6
37 | N#Cc1cc(F)ccc1C1CN([C@@H]2CCC[C@H]2Oc2ccc3c(c2)CN(C24CC(C2)C(=O)NC4=O)C3=O)C1 (racemic) [Compound 71, Rac-2-(1-((trans)-2-((2-(2,4-dioxo-3-azabicyclo[3.1.1]heptan-1-yl)-1-oxoisoindolin-5-yl)oxy)cyclopentyl)azetidin-3-yl)-5-fluorobenzonitrile] | <15
22 | N#Cc1cccc(C2CN([C@H]3CCCC[C@H]3Oc3ccc4c(c3)CN(C3CCC(=O)NC3=O)C4=O)C2)c1 (mixture of isomers) [Compound 76, Rac-3-(1-((cis)-2-((2-(2,6-dioxopiperidin-3-yl)-1-oxoisoindolin-5-yl)oxy)cyclohexyl)azetidin-3-yl)benzonitrile] | 73.7
8 | O=C1CCC(N2Cc3cc(O[C@H]4CCCC[C@@H]4N4CC(c5cccc(OC(F)F)c5)C4)ccc3C2=O)C(=O)N1 (stereo partly drawn) [Compound 80, 3-(5-(((1S,2S)-2-(3-(3-(difluoromethoxy)phenyl)azetidin-1-yl)cyclohexyl)oxy)-1-oxoisoindolin-2-yl)piperidine-2,6-dione] | 76.7
52 | N#Cc1cc(Cl)ccc1C1CN([C@H]2CCCC[C@@H]2Oc2ccc3c(c2)CN(C2CCC(=O)NC2=O)C3=O)C1 (single isomer, unassigned) [Compound 38] | 84.9
25 | O=C1CCC(N2Cc3cc(OC4CCCCC4N4CC(c5ccccc5C(F)(F)F)C4)ccc3C2=O)C(=O)N1 (centres unmarked) [Compound 69, 3-(1-oxo-5-((2-(3-(2-(trifluoromethyl)phenyl)azetidin-1-yl)cyclohexyl)oxy)isoindolin-2-yl)piperidine-2,6-dione] | <15
18 | O=C1CCC(N2Cc3cc(O[C@H]4CCCC[C@H]4N4CC(c5ccccc5)C4)ccc3C2=O)C(=O)N1 (stereo partly drawn) [Compound 128, 3-(1-oxo-5-(((1S,2R)-2-(3-phenylazetidin-1-yl)cyclohexyl)oxy)isoindolin-2-yl)piperidine-2,6-dione] | <15
29 | O=C1CCC(N2Cc3cc(O[C@H]4CCCC[C@@H]4N4CC(c5ccccc5)C4)c(F)cc3C2=O)C(=O)N1 (single isomer, unassigned) [Compound 53] | 86.9
22 | N#Cc1cc(F)ccc1C1CN([C@H]2CCCC[C@@H]2Oc2ccc3c(c2)CN(C2CCC(=O)NC2=O)C3=O)C1 (single isomer, unassigned) [Compound 45] | 88
18 | O=C1CCC(N2Cc3cc(O[C@H]4CCCC[C@@H]4N4CC(c5ccc(F)cc5)C4)ccc3C2=O)C(=O)N1 (single isomer, unassigned) [Compound 51] | 74.2
20 | N#Cc1ccc(C2CN([C@@H]3CCCC[C@@H]3Oc3ccc4c(c3)CN(C3CCC(=O)NC3=O)C4=O)C2)cc1F (mixture of isomers) [Compound 122, rac-4-(1-((cis)-2-((2-(2,6-dioxopiperidin-3-yl)-1-oxoisoindolin-5-yl)oxy)cyclohexyl)azetidin-3-yl)-2-fluorobenzonitrile] | <15
12 | N#Cc1ccc(C2CN([C@@H]3CCCC[C@@H]3Oc3ccc4c(c3)CN(C3CCC(=O)NC3=O)C4=O)C2)c(F)c1 (mixture of isomers) [Compound 115, Rac-4-(1-((cis)-2-((2-(2,6-dioxopiperidin-3-yl)-1-oxoisoindolin-5-yl)oxy)cyclohexyl)azetidin-3-yl)-3-fluorobenzonitrile] | 63.6
20 | N#Cc1ccc(C2CN([C@H]3CCCC[C@@H]3Oc3ccc4c(c3)CN(C3CCC(=O)NC3=O)C4=O)C2)c(Cl)c1 (mixture of isomers) [Compound 74, Rac-3-chloro-4-(1-((trans)-2-((2-(2,6-dioxopiperidin-3-yl)-1-oxoisoindolin-5-yl)oxy)cyclohexyl)azetidin-3-yl)benzonitrile] | 63
15 | O=C1CCC(N2Cc3cc(O[C@H]4CCCC[C@H]4N4CC(c5cccc(C(F)(F)F)c5)C4)ccc3C2=O)C(=O)N1 (mixture of isomers) [Compound 63, Rac-3-(1-oxo-5-(((cis)-2-(3-(3-(trifluoromethyl)phenyl)azetidin-1-yl)cyclohexyl)oxy)isoindolin-2-yl)piperidine-2,6-dione] | 44.9
26 | O=C1CCC(N2Cc3cc(OC4CCCCC4N4CC(c5ccccc5OC(F)(F)F)C4)ccc3C2=O)C(=O)N1 (centres unmarked) [Compound 68, 3-(1-oxo-5-((2-(3-(2-(trifluoromethoxy)phenyl)azetidin-1-yl)cyclohexyl)oxy)isoindolin-2-yl)piperidine-2,6-dione] | 42.5
36 | O=C1CCC(N2Cc3cc(OC4CCCCC4N4CC(c5ccccc5)C4)ccc3C2=O)C(=O)N1 (centres unmarked) [Compound 118, 3-(1-oxo-5-((2-(3-phenylazetidin-1-yl)cyclohexyl)oxy)isoindolin-2-yl)piperidine-2,6-dione] | <15
25 | N#Cc1cc(Cl)ccc1C1CN([C@@H]2CCCC[C@@H]2Oc2ccc3c(c2)CN(C2CCC(=O)NC2=O)C3=O)C1 (single isomer, unassigned) [Compound 37] | <15

Molecule | EC50 [1] [nM] | IKZF2 % Degradation @ 1 μM [2] [%]
Rac-3-(5-(((trans)-2-(3-hydroxy-3-phenylazetidin-1-yl)cyclohexyl)oxy)-1-oxoisoindolin-2-yl)piperidine-2,6-dione [Compound 96] | 42 | 78.9
